Data: patent publication US8569356B2, “Cyclin dependent kinase inhibitors” (University of Florida Research Foundation, Inc., priority 2005, dated 2013)
“Also recorded” adds a separate entry of the source. Each block holds one molecule with its values, some of them ahead of it.

Experiments:
[1] = system: PC-3 tumor cells; test: PC-3 tumor in mice, intratumoral injection with CD44 RNA interference; assay type: in vivo; conditions: combined with CD44 RNA interference, after 11 days of injection, three treated animals
Protocol: The effect of 4-tert-Butyl-2-nitroaniline when combined with CD44 RNA interference was therefore investigated.
Seven-wk-old mice (Jackson Laboratory, Bar Harbor, Me.) were injected in the right flank with 2×10^6 PC-3 tumor cells in 500 μl liquid Matrigel. […] By 14 days after injection, a tumor mass was palpable and at 27 days, 4-tert-Butyl-2-nitroaniline and CD44 RNAi therapy commenced. Gene transfection was controlled for quantitation by injecting a constant 10 μg of vector. This approach involved mixing volume of DNA containing 10 μg of pU6BS (and subsequently pTracer) plasmid having the CD44 RNAi construct with 10 μl of Metafectene before injection into the tumor. Both Metafectene and DNA were diluted separately in 100 μl of sterile serum-free RPMI before mixing (see, e.g., Iczkowski K A, Omara-Opyene A L, and Klösel R., Molecular Biotechnology 2004; 28:97-103). The mixture was then allowed to stand for 30 minutes before injection to allow the formation of Metafectene:DNA complexes.
Intra-tumoral injection was performed five times weekly, angling the needle at different areas of the tumor during a given injection as well as varying the injection site for each injection occasion. Control animals were injected with 100 μl consisting of 50 μl empty vector/medium plus 50 μl of Metafectene.

[2] = system: BT549 breast cancer cells; test: 3H-thymidine incorporation assay, BT549; assay type: cell-based, human
Protocol: FIG. 4. Compounds #1, #7, and #11 inhibit proliferation of BT549 breast cancer cells. BT549 cells were treated for 24 hours with the indicated “Pocket #1” compounds. The effect of treatment on cell proliferation was quantitated by measuring the amount of ^3H-Thymidine incorporated into cellular DNA over a two hour time interval. The results are presented as the average of triplicate determinations ±standard deviation.
FIG. 5. Compounds predicted to bind to “Pocket #2” inhibit proliferation of BT549 breast cancer cells. BT549 cells were treated for 24 hours with the indicated “Pocket #2” compounds. The effect of treatment on cell proliferation was quantitated by measuring the amount of ^3H-Thymidine incorporated into cellular DNA over a two hour time interval. The results are presented as the average of triplicate determinations ±standard deviation.
Additional ^3H-thymidine incorporation assays were performed to determine whether the “Pocket #2” binding drugs (see Table 2) inhibit cell proliferation at concentrations lower than 100 μM.

[3] = system: PC3 prostate tumor cells; test: Mouse xenograft tumor model, PC3; assay type: in vivo, SCID mice; conditions: intratumoral, 1:50 dilution (2 mM), compared with 1:50 DMSO in PBS in two controls
Protocol: A compound of the invention (Compound 1) was tested in a mouse xenograft tumor model to determine whether the compound can inhibit tumor growth in vivo.
SCID mice were subcutaneously implanted with PC3 prostate tumor cells in the flank and were administered intratumorally with controls (DMSO) or a test compound.
The two control animals were sacrificed when the total tumor volume (L×W×H) exceeded 1.5 cc. The treated animal was sacrificed because a small but significant skin ulceration was developing over the tumor.

[4] = system: prostate cancer cell line, Gs-α; test: Matrigel cell invasion assay; assay type: cell-based; conditions: Matrigel invasion chambers, 36 h
Protocol: A cell invasion assay was performed on an aggressive prostate cancer cell line, Gs-α, to determine the effects of selected compounds that inhibit cell proliferation.
The experiment was performed in six-well Matrigel two-tier invasion chambers (Collaborative Biomedical Products, Bedford, Mass., USA), using a protocol similar to that used successfully by others (see, e.g., Chien J, Wong E, Nikes E et al., Oncogene 1999; 18: 3376-3382, incorporated herein by reference). […]
While the membranes were still wet in culture dishes, the GFP-positive cells on the entire membrane were counted under fluorescent illumination. […] The total number of cells on the entire gel was counted. The data from invasion assay were corrected for cell growth during experimental periods as follows: the experimental cells were plated at a density of 10^5 cells per well in six-well control inserts in chemoattractant medium and increase in cell number were determined after 48 h. […] The results were expressed as mean±standard deviation. […]
Significance of differences in Percent Invasion according to treatment (or transfection of Metafectene vehicle alone) were assessed by Student's t-test.

[5] = system: multiple human cancer cell lines; conditions: NCI screen, read-out: average 50% inhibitory concentration (IC50), proliferation; cited from earlier work
[6] = molecular target: T1, Cdk2 (Homo sapiens, UniProt P24941); test: Immunofluorescence microscopy of Cdk2 distribution; assay type: cell-based; design: endogenous in cells; conditions: MDA-MB-468 breast cancer cells, 24 hours
Protocol: FIG. 6. Immunofluorescence microscopy of cellular distribution of Cdks in the absence (upper panels) and presence (lower panels) of a compound of the invention. MDA-MB-468 breast cancer cells were treated with the indicated concentration of pocket 1 compound #7 for 24 hours. Immunofluorescence microscopy was performed using an antibody to Cdk2. […] These aggregates are most apparent at sites of cell-cell contact.
(§1) It appears that compounds of the invention can cause redistribution of Cdk1, Cdk2, and Cdk4 in cells.

[7] = system: DU145 cells; test: 3H-thymidine incorporation assay, DU145; assay type: cell-based, human; conditions: 100 μM, 24 hours
Excerpt: (§2) FIG. 2. In silico molecular docking and preliminary analysis of potential Cyclin/Cdk2 inhibitors. (A) Cyclin A/Cdk2/p27 complex with spheres docked into the binding pocket (Pocket #1) and the pocket enclosed in a scoring grid (rectangular box). (B) Binding cleft shown filled with spheres, the top 10 hits superimposed into the binding pocket (All Hits), and the predicted mode of binding of individual hits in the Cyclin A/Cdk2/p27 pocket (Hits #3-10). (C) NMuMG (black bars) or DU145 cells (open bars) were treated for 24 hours with 100 μM of the indicated compounds and ^3H-thymidine incorporation was measured to assess rates of cell proliferation. Roscovitine is a known Cdk inhibitor and was included as a positive control. DMSO (0.1%) was included as a vehicle control. (D) Morphological change induced by 100 μM Hit #10 in NMuMG and DU145 cells after treatment for 24 hours.
(§3) Labeled thymidine (^3H-thymidine) incorporation assays were used to screen compounds at a concentration of 100 μM using mouse mammary epithelial cells and the human prostate cancer cell line DU145.
Human prostate cancer DU145 cells were plated at 30,000 cells per well in 24-well plates and allowed to attach for 24 hours. The cells were treated for 24 hours with either 100 μM of the indicated compounds, 0.1% DMSO as a vehicle control, or left untreated. The cells were pulsed with ^3H-thymidine for two hours. The cells were fixed in 10% trichloroacetic acid and washed a total of three times with 10% trichloroacetic acid. The ^3H-thymidine-labeled DNA was dissolved in 0.2% NaOH, mixed with scintillation fluid, and the associated radioactivity quantitated using a scintillation counter. These experiments were performed in triplicate and the results are presented as the average thymidine incorporation±standard deviation. […]

[8] = molecular target: T2, Cdk1 (Homo sapiens, UniProt P06493); test: Immunoblot of cellular Cdk1 level in BT549 cells; assay type: cell-based; conditions: 24 or 48 hours, time- and dose-dependent
T2 construct: endogenous in cells; host or cells: BT549
Protocol: (§4) BT549 cells were treated with the indicated Pocket #1 compounds for the indicated intervals. Cell lysates were prepared and the amounts of Cdk1, Cdk2, and Cdk4 were determined by immunoblot. Actin staining serves as a loading control. DMSO serves as a vehicle control.
(§5) Human breast cancer BT549 cells were treated as indicated for 24 or 48 hours with either 0.2% DMSO as a vehicle control, or compounds #3, #4, and #7 at the indicated concentrations. Cell lysates were prepared, normalized for protein content, resolved by SDS-PAGE and the proteins transferred to nitrocellulose. Levels of Cdk1, Cdk2, and Cdk4 were measured using primary antibodies specific for these proteins, followed by alkaline-phosphatase-conjugated secondary antibodies and colorimetric detection using the substrate NBT/BCIP.

[9] = molecular target: T1, Cdk2; test: Immunoblot of cellular Cdk2 level in BT549 cells; assay type: cell-based; design: endogenous in cells; host or cells: BT549; conditions: 24 or 48 hours, time- and dose-dependent
Protocol: as §4, §5

[10] = molecular target: T3, Cdk4 (Homo sapiens, UniProt P11802); test: Immunoblot of cellular Cdk4 level in BT549 cells; assay type: cell-based; conditions: 24 or 48 hours, time- and dose-dependent
T3 construct: endogenous in cells; host or cells: BT549
Protocol: as §4, §5

[11] = molecular target: T2, Cdk1; test: Immunofluorescence microscopy of Cdk1 distribution; assay type: cell-based
Excerpt: as §1

[12] = molecular target: T3, Cdk4; test: Immunofluorescence microscopy of Cdk4 distribution; assay type: cell-based
Excerpt: as §1

[13] = system: NMuMG cells; test: 3H-thymidine incorporation assay, NMuMG; assay type: cell-based, mouse; conditions: 100 μM, 24 hours
Excerpt: as §2, §3
Seven of the molecules identified in Example 1 as having the top estimated binding energies (Hits/Compounds 3, 4, 6, 7, 8, 9, and 10) were obtained and tested for their ability to induce cell cycle arrest of mouse mammary NMuMG and DU145 human prostatic carcinoma cell lines in ^3H-thymidine incorporation assays (FIG. 2C). […] Thus at least five of the ten top-ranked compounds are cell permeable and induce an appreciable arrest of cancer cell proliferation.

T3 sequence (P11802 whole entry): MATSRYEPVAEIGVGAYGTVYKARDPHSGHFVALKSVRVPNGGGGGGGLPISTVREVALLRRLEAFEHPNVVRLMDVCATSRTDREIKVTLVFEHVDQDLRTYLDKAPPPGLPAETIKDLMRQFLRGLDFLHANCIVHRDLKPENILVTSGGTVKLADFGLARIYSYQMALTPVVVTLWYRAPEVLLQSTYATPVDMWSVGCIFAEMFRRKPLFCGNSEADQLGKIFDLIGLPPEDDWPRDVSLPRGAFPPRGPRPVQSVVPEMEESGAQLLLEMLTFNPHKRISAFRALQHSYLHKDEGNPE
T2 sequence (P06493 whole entry): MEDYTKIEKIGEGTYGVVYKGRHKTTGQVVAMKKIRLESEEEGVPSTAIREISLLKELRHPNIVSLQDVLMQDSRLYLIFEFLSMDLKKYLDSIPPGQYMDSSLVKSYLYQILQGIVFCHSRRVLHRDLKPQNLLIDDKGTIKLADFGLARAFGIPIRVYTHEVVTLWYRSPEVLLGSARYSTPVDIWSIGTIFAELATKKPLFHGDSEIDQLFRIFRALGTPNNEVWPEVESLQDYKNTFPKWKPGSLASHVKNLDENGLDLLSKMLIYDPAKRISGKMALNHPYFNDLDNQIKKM

Structure (SMILES): CC(C)(C)c1ccc(N)c([N+](=O)[O-])c1 [Compound 3, 4-tert-Butyl-2-nitroaniline]
decrease of tumor volume [1]: more than 50%

Structure (SMILES): O=C(N/N=C\c1cc(Br)ccc1O)N/N=C/c1cc(Br)ccc1O [VDW9]
inhibition of proliferation (3H-thymidine incorporation) ([2]; 2 μM, 24 hours): inhibited proliferation
inhibition of proliferation (3H-thymidine incorporation) ([2]; 10 μM, 24 hours): inhibited proliferation

Structure (SMILES): Cc1ccc(C(=O)/C=C/c2ccccc2)s1 [Compound 1]
tumor growth [3]: markedly reduced tumor growth
potency compared with Compound 7 [2]: more potent than Compound 7
effective concentration for inhibition of proliferation ([2]; 24 hours): low micromolar concentrations
inhibition of proliferation (3H-thymidine incorporation) ([2]; 24 hours): inhibit the proliferation
cell invasiveness in vitro [4]: inhibit cell invasiveness

Structure (SMILES): COc1ccc2oc3cccc(NN(C)C)c3c(=O)c2c1 [Compound 2, 1-(N′,N′-Dimethyl-hydrazino)-7-methoxy-xanthen-9-one]
IC50 [5]: 12 µM

cellular level of Cdk1 [8]: Decrease the Cellular Levels
cellular level of Cdk2 [9]: Decrease the Cellular Levels
cellular level of Cdk4 [10]: Decrease the Cellular Levels
Cdk4 localization [12]: aggregates appear on top of the nuclei
Structure (SMILES): COc1ccc(C(C#N)=Cc2ccccn2)cc1 [Compound 7, 2-(4-methoxyphenyl)-3-pyridin-2-yl-prop-2-enenitrile]
Cdk2 localization [6]: aggregates appear primarily at cell-cell junctions; also recorded: change in Cdk2 localization consistent with aggregation
inhibition of cell proliferation (3H-thymidine incorporation) [7]: significantly inhibited proliferation
inhibition of proliferation (3H-thymidine incorporation) ([2]; 24 hours): inhibit the proliferation
Cdk1 localization [11]: aggregates appear primarily at cell-cell junctions
inhibition of cell proliferation (3H-thymidine incorporation) [13]: significantly inhibited proliferation

Structure (SMILES): c1ccc(OSOc2ccccc2)cc1 [Compound 10]
inhibition of cell proliferation (3H-thymidine incorporation) [7]: significantly inhibited proliferation
morphological change [7]: dramatic morphological change
inhibition of cell proliferation (3H-thymidine incorporation) [13]: significantly inhibited proliferation
morphological change [13]: dramatic morphological change
